From US11718622B2, “Heterocyclic adenosine receptor antagonists” (Exelixis, Inc., priority 2020, dated 2023) come the findings set out here.

What is called IC50 is the point on the concentration scale where inhibition reaches its midpoint.

Molecules are shown by their SMILES. Where only a bound is given, the exact number is not on record here.

The target in test [1] is Adenosine A2a (ADORA2A) receptor (Homo sapiens (Human), UniProt P29274). Briefly: ADORA2A Receptor Binding Assay. Conditions: radioligand binding, membrane stock. How it is done:
ADORA1A and ADORA2A Receptor Binding Assay
2 μL of each compound (test compounds, high control compound, low control compound) was transferred into individual wells of an assay plate. Also to each individual well, 98 μL of Adenosine A1a membrane stock (for ADORA1A Receptor Binding Assay) or Adenosine A2a membrane stock (for ADORA2A Receptor Binding Assay) was dispensed, followed by 100 μL of radio-labeled ligand. Plates were then sealed, and incubated at room temperature for 1 hour (for ADORA1A Receptor Binding Assay) or 2 hours (for ADORA2A Receptor Binding Assay). Unifilter-96 GF/C filter plates were pre-soaked with 50 μL of 0.3% PEI per well for at least 30 min at room temperature. When binding assays were completed, reaction mixtures were filtered through GF/C plates using a Perkin Elmer Filtermate Harvester, and then each plate was washed 4× with cold wash buffer. Filter plates were then dried for 1 hour at 50° C. After drying, the bottom of the filter plate wells was sealed using Perkin Elmer Unifilter-96 backing seal tape. 50 μL of Perkin Elmer Microscint 20 cocktail was then added, and the top of the filter plate was then sealed using Perkin Elmer TopSeal-A sealing film. ^3H trapped on the filter was counted using a Perkin Elmer MicroBeta2 Reader. Data analysis was performed using GraphPad Prism 5 software, and the “Inhibition [% Control]” was calculated using the following equation: % Inh=(1−Background subtracted Assay value/Background subtracted HC value)*100.

Test [2] concerns the target Adenosine A2B (ADORA2B) receptor (Homo sapiens (Human), UniProt P29275). Briefly: ADORA2B Receptor Binding Assay. The note with it: radioligand binding, membrane stock. How it is done: ADORA2B Receptor Binding Assay
100 μL of Adenosine A2B membrane stock was dispensed into individual wells of an assay plate. 1 μL of each compound (test compounds, high control compound, low control compound) was then transferred into individual wells, followed by 100 μL of radio-labeled ligand. Plates were then sealed, and incubated at room temperature for 1 hour. Unifilter-96 GF/C filter plates were pre-soaked with 50 μL of 0.5% BSA per well for at least 30 min at room temperature. When binding assays were completed, reaction mixtures were filtered through GF/C plates using a Perkin Elmer Filtermate Harvester, and then each plate was washed 4× with cold wash buffer. Filter plates were then dried for 1 hour at 50° C. After drying, the bottom of the filter plate wells was sealed using Perkin Elmer Unifilter-96 backing seal tape. 50 μL of Perkin Elmer Microscint 20 cocktail was then added, and the top of the filter plate was then sealed using Perkin Elmer TopSeal-A sealing film. ^3H trapped on the filter was counted using a Perkin Elmer MicroBeta2 Reader. Data analysis was performed using GraphPad Prism 5 software, and the “Inhibition[% Control]” was calculated using the following equation: % Inh=(1−Background subtracted Assay value/Background subtracted HC value)*100.

Chain of Adenosine A2a (ADORA2A) receptor (P29274 whole entry): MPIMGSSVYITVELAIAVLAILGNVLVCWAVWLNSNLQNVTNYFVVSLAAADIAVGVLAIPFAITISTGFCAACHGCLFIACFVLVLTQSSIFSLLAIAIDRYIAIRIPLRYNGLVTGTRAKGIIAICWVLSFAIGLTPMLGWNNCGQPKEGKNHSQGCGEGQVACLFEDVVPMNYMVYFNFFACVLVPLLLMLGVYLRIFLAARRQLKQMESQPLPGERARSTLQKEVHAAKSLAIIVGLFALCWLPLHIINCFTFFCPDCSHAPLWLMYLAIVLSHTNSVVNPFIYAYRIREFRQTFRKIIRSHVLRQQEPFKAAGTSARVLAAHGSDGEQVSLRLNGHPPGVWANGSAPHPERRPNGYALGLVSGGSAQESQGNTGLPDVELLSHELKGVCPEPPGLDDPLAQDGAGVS
Chain of Adenosine A2B (ADORA2B) receptor (P29275 whole entry): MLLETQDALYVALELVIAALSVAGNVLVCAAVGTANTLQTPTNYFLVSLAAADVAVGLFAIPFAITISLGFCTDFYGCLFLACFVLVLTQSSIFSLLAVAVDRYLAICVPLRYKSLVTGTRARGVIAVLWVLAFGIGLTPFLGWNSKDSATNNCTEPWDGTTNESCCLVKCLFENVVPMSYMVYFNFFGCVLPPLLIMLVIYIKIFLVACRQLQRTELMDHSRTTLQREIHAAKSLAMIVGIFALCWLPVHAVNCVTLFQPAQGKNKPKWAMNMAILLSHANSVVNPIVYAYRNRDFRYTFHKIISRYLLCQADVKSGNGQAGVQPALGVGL

With `Cc1nc2cc(N)nc(-c3ccc(C)o3)n2n1` [Compound 1, 2-Methyl-5-(5-methylfuran-2-yl)-[1,2,4]triazolo[1,5-c]pyrimidin-7-amine], the IC50 in test [1] was under 10 nM; in test [2], 10 to 100 nM.

For `Cc1nc2cc(NC(=O)C3CC3)nc(-c3ccc(C)o3)n2n1` [Compound 2, N-(2-methyl-5-(5-methylfuran-2-yl)-[1,2,4]triazolo[1,5-c]pyrimidin-7-yl)cyclopropanecarboxamide], the IC50 in test [1] and in test [2] was under 10 nM in each case.

In the case of `COc1ccc(Cc2nc3cc(N)nc(-c4ccc(C)o4)n3n2)cc1` [Compound 3, 2-[(4-methoxyphenyl)methyl]-5-(5-methylfuran-2-yl)-[1,2,4]triazolo[1,5-c]pyrimidin-7-amine], the IC50 in test [1] lay within 10 to 100 nM; in test [2], 100 to 1000 nM.

In the case of `COc1ccc(Cc2nc3cc(NC(=O)C4CC4)nc(-c4ccc(C)o4)n3n2)cc1` [Compound 4], the IC50 in test [1] and in test [2] was under 10 nM in each case.

For `CCC(=O)Nc1cc2nc(C)nn2c(-c2ccc(C)o2)n1` [Compound 5, N-[2-methyl-5-(5-methylfuran-2-yl)-[1,2,4]triazolo[1,5-c]pyrimidin-7-yl]propanamide], the IC50 was under 10 nM in test [1] and 10 to 100 nM in test [2].

For `Cc1nc2cc(NC(=O)C(C)(C)C)nc(-c3ccc(C)o3)n2n1` [Compound 6, 2,2-dimethyl-N-[2-methyl-5-(5-methylfuran-2-yl)-[1,2,4]triazolo[1,5-c]pyrimidin-7-yl]propanamide], the IC50 was under 10 nM in test [1] and over 1000 nM in test [2].

For the compound `CCc1nc2cc(N)nc(-c3ccc(C)o3)n2n1` [Compound 7, 2-ethyl-5-(5-methylfuran-2-yl)-[1,2,4]triazolo[1,5-c]pyrimidin-7-amine], the values for the IC50 in test [1] and in test [2] were under 10 nM and 100 to 1000 nM, respectively.

In the case of `CCc1nc2cc(NC(=O)C3CC3)nc(-c3ccc(C)o3)n2n1` [Compound 8, N-[2-ethyl-5-(5-methylfuran-2-yl)-[1,2,4]triazolo[1,5-c]pyrimidin-7-yl]cyclopropanecarboxamide], the IC50 was under 10 nM in test [1] and 10 to 100 nM in test [2].

Take `Cc1nc2cc(NC(=O)[C@@H]3CCCN3)nc(-c3ccc(C)o3)n2n1` [Compound 9, (2S)-N-[2-methyl-5-(5-methylfuran-2-yl)-[1,2,4]triazolo[1,5-c]pyrimidin-7-yl]pyrrolidine-2-carboxamide]: the IC50 in test [1] was 10 to 100 nM.

On to `Cc1nc2cc(NC(=O)C3CCC3)nc(-c3ccc(C)o3)n2n1` [Compound 10, N-[2-methyl-5-(5-methylfuran-2-yl)-[1,2,4]triazolo[1,5-c]pyrimidin-7-yl]cyclobutanecarboxamide], for which the IC50 in test [1] was under 10 nM; in test [2] it was 10 to 100 nM.

Consider `Cc1nc2c(Cl)c(N)nc(-c3ccc(C)o3)n2n1` [Compound 11, 8-chloro-2-methyl-5-(5-methylfuran-2-yl)-[1,2,4]triazolo[1,5-c]pyrimidin-7-amine], for which the IC50 in test [1] and in test [2] was under 10 nM throughout.

For the compound `Cc1ccc(-c2nc(NC(=O)C3CC3)cc3nc(C(C)C)nn23)o1` [Compound 12, N-[5-(5-methylfuran-2-yl)-2-propan-2-yl-[1,2,4]triazolo[1,5-c]pyrimidin-7-yl]cyclopropanecarboxamide], the IC50 in test [1] and in test [2] was under 10 nM throughout.

As for `Cc1ccc(-c2nc(N)cc3nc(C(C)C)nn23)o1` [Compound 13, 5-(5-methylfuran-2-yl)-2-propan-2-yl-[1,2,4]triazolo[1,5-c]pyrimidin-7-amine], the IC50 in test [1] is under 10 nM; in test [2] it was 100 to 1000 nM.

For `Cc1nc2cc(NC(=O)C3CNC3)nc(-c3ccc(C)o3)n2n1` [Compound 14, N-[2-methyl-5-(5-methylfuran-2-yl)-[1,2,4]triazolo[1,5-c]pyrimidin-7-yl]azetidine-3-carboxamide], the IC50 in test [1] was under 10 nM; in test [2] it was 10 to 100 nM.

Turning to `Cc1nc2c(Cl)c(NC(=O)C3CC3)nc(-c3ccc(C)o3)n2n1` [Compound 15, N-[8-chloro-2-methyl-5-(5-methylfuran-2-yl)-[1,2,4]triazolo[1,5-c]pyrimidin-7-yl]cyclopropanecarboxamide], the results for the IC50 in test [1] and in test [2] were under 10 nM and 100 to 1000 nM, respectively.

Regarding `Cc1nc2c(Br)c(N)nc(-c3ccc(C)o3)n2n1` [Compound 16, 8-bromo-2-methyl-5-(5-methylfuran-2-yl)-[1,2,4]triazolo[1,5-c]pyrimidin-7-amine], the IC50 in test [1] and in test [2] was under 10 nM each time.

In the case of `Cc1nc2cc(NC(=O)[C@H]3CCCN3)nc(-c3ccc(C)o3)n2n1` [Compound 17, (2R)-N-[2-methyl-5-(5-methylfuran-2-yl)-[1,2,4]triazolo[1,5-c]pyrimidin-7-yl]pyrrolidine-2-carboxamide], the IC50 in test [1] was under 10 nM.

As for `Cc1nc2cc(NC(=O)C3CN(C)C3)nc(-c3ccc(C)o3)n2n1` [Compound 18, 1-methyl-N-[2-methyl-5-(5-methylfuran-2-yl)-[1,2,4]triazolo[1,5-c]pyrimidin-7-yl]azetidine-3-carboxamide], the results for the IC50 in test [1] and in test [2] were under 10 nM and 10 to 100 nM, respectively.

As to `Cc1nc2c(C)c(NC(=O)C3CC3)nc(-c3ccc(C)o3)n2n1` [Compound 19, N-[2,8-dimethyl-5-(5-methylfuran-2-yl)-[1,2,4]triazolo[1,5-c]pyrimidin-7-yl]cyclopropanecarboxamide], the IC50 in test [1] is 10 to 100 nM; in test [2], 100 to 1000 nM.

With `Cc1ccc(-c2nc(NC(=O)C3CC3)cc3nc(C(F)(F)F)nn23)o1` [Compound 20, N-[5-(5-methylfuran-2-yl)-2-(trifluoromethyl)-[1,2,4]triazolo[1,5-c]pyrimidin-7-yl]cyclopropanecarboxamide], the IC50 in test [1] and in test [2] was under 10 nM each time.

Take `Cc1ccc(-c2nc(N)cc3nc(C(F)(F)F)nn23)o1` [Compound 21, 5-(5-methylfuran-2-yl)-2-(trifluoromethyl)-[1,2,4]triazolo[1,5-c]pyrimidin-7-amine]: the IC50 in test [1] is under 10 nM; in test [2] it was 10 to 100 nM.

On to `Cc1nc2c(C)c(N)nc(-c3ccc(C)o3)n2n1` [Compound 22, 2,8-dimethyl-5-(5-methylfuran-2-yl)-[1,2,4]triazolo[1,5-c]pyrimidin-7-amine], for which the IC50 in test [1] was under 10 nM; in test [2], 10 to 100 nM.

Take `CNc1nc(-c2ccc(C)o2)n2nc(C)nc2c1Cl` [Compound 23, 8-chloro-N,2-dimethyl-5-(5-methylfuran-2-yl)-[1,2,4]triazolo[1,5-c]pyrimidin-7-amine]: the IC50 in test [1] was 100 to 1000 nM; in test [2] it was over 1000 nM.

`Cc1nc2c(Cl)c(N(C)C)nc(-c3ccc(C)o3)n2n1` [Compound 24, 8-chloro-N,N,2-trimethyl-5-(5-methylfuran-2-yl)-[1,2,4]triazolo[1,5-c]pyrimidin-7-amine]: the IC50 in test [1] and in test [2] was over 1000 nM throughout.

Take `CC(=O)Nc1cc2nc(C)nn2c(-c2ccc(C)o2)n1` [Compound 25, N-[2-methyl-5-(5-methylfuran-2-yl)-[1,2,4]triazolo[1,5-c]pyrimidin-7-yl]acetamide]: the half-maximal inhibitory concentration (IC50) in test [1] and in test [2] was under 10 nM throughout.

On to `Cc1nc2c(C#N)c(N)nc(-c3ccc(C)o3)n2n1` [Compound 26, 7-amino-2-methyl-5-(5-methylfuran-2-yl)-[1,2,4]triazolo[1,5-c]pyrimidine-8-carbonitrile], for which the IC50 in test [1] and in test [2] was under 10 nM throughout.

In the case of `Cc1nc2c(Br)c(NC(=O)C3CC3)nc(-c3ccco3)n2n1` [Compound 31, N-[8-bromo-5-(furan-2-yl)-2-methyl-[1,2,4]triazolo[1,5-c]pyrimidin-7-yl]cyclopropanecarboxamide], the IC50 in test [1] fell in the range of 10 to 100 nM.

In test [1], `Cc1ccc(-c2nc(N)cn3ccnc23)o1` [Compound 191, 8-(5-methylfuran-2-yl)imidazo[1,2-a]pyrazin-6-amine] displayed an IC50 of 100 to 1000 nM.

Turning to `CCOC(=O)c1cn2cc(NC(=O)C3CC3)nc(-c3ccc(C)o3)c2n1` [Compound 193, ethyl 6-(cyclopropanecarbonylamino)-8-(5-methylfuran-2-yl)imidazo[1,2-a]pyrazine-2-carboxylate], the IC50 in test [1] fell in the range of 10 to 100 nM.

Consider `Cc1ccc(-c2nc(NC(=O)C3CC3)cn3cc(C(=O)O)nc23)o1` [Compound 194, 6-(cyclopropanecarbonylamino)-8-(5-methylfuran-2-yl)imidazo[1,2-a]pyrazine-2-carboxylic acid], for which the IC50 in test [1] was over 1000 nM.
